This is an account of results in PMC5862576, “Mitochondrial fission as a driver of stemness in tumor cells: mDIVI1 inhibits mitochondrial function, cell migration and cancer stem cell (CSC) signalling” (Oncotarget, 2018).

Assay [1] has as its system MCF7 cells. Kind of assay: Mitochondrial mass quantification (MitoTracker Deep Red, flow cytometry). In kind it is cell-based, Human. The note with it: 50 µM, 5 days, vs vehicle. As to the method: To measure mitochondrial mass, cells were stained with MitoTracker Deep Red (M22426, Invitrogen). Briefly, 2 × 10^5 MCF7 cells per well were seeded in 6-well plates. When cells were attached, mDIVI1 and vehicle treatments were added for 2 days or 5 days in triplicate. Cells were then incubated for 15 min at 37° C with the 10 nM Mitotracker Deep Red probe diluted in PBS ([…], Sigma). All subsequent steps were performed in the dark. Cells were washed in PBS, harvested, and re-suspended in PBS. Mitotracker signal was quantified as mean fluorescent intensity of the viable cell population in a Fortessa flow cytometer (BD Bioscience). Results were analyzed using FlowJo software.
A general note: Flow cytometry measures light scatter and fluorescence of single cells or particles in a stream.

Assay [2] has as its system MCF7 cells. Put plainly: Mitochondrial superoxide (MitoSOX, flow cytometry). In kind it is cell-based, Human. The note with it: both concentrations; 24 hour, 2 and 5 days; vs vehicle. As to the method: (§1) For both assays, 2 × 10^5 MCF7 cells were seeded in 35 mm plates. When cells were attached, either vehicle or mDIVI1 were added to the cells for 24, 48 hours or 5 days in triplicate. Reactive oxygen species (ROS) production was measured using CM-H2DCFDA (C6827, Invitrogen). Briefly, cells were incubated for 20 minutes at 37° C with 1 µM CM-H2DCFDA diluted in PBS and then placed in complete media for 20 minutes at 37° C in the dark, to render the dye fluorescent, according to the manufacturer. Mitochondrial superoxide was measured using MitoSOX Red Mitochondrial Superoxide Indicator (M36008, ThermoFisher Scientific). Briefly, cells were incubated for 10 minutes at 37° C in the dark with 5 µM MitoSOX diluted in PBS, according to the manufacturer. ROS signal and MitoSOX signal was quantified as mean fluorescent intensity of the viable cell population in a Fortessa flow cytometer (BD Bioscience). Results were analysed using FlowJo software.

Assay [3] deals with MCF7 cells. Kind of assay: Total ROS (CM-H2DCFDA, flow cytometry). The settings on record: 24, 48 hours or 5 days. In kind it is cell-based, Human. As to the method:
as §1

The test system of assay [4] is MCF7 cells. Kind of assay: Extracellular flux analysis (ECAR and OCR, Seahorse XF96). The settings on record: 48 hours. The assay is classed as cell-based, Human.
The subject of a further assay is A375 melanoma. Kind of assay: Tumorsphere formation assay, A375. The assay is classed as cell-based. The note with it: five days. As to the method: A single cell suspension was prepared using enzymatic (1× Trypsin-EDTA, T3924, Sigma Aldrich), and manual disaggregation (25 gauge needle). Cells were plated at a density of 5000 cells/well in tumorsphere media (DMEM-F12/B27/EGF (20ng/ml)/Pen-Strep) in non-adherent conditions, in 6-well plates coated with (2-hydroxyethylmethacrylate) (poly-HEMA, P3932, Sigma) in the presence of mDIVI1 or vehicle. After 5 days of culture in a humidified incubator at 37° C, tumorspheres bigger than 50 μm were counted using an eye piece graticule.

Assay [5] deals with MCF7 cells. Kind of assay: Scratch assay (wound closure). In kind it is cell-based, Human. The note with it: 48 hours. As to the method: A hundred thousand MCF7 cells per well were seeded in 12-well plates. When cells were attached, a horizontal scratch was performed using the tip of a pipette. Immediately after, the media was removed and either fresh vehicle-containing media or mDIVI1-containing media were added to the cells for 48 hours. Four replicates were used for each condition. Cells were incubated in a 5% CO2 atmosphere at 37° C in an Incucyte ZOOM System (Essen Bioscience). The wound closure was monitored by taking pictures of each well every 4 hours. At the end of the treatment, pictures of the wells at 0 and 48 hours were analysed using ImageJ software to calculate wound closure according to the following formula: Percentage wound closure=[(wound area0h−wound area48h)/wound area0h]×100

A further assay deals with Hedgehog signalling. Put plainly: Luciferase reporter assay MCF7-GFP-GLI(luc). In kind it is cell-based, Human. The note with it: 50 µM, 2 and 5 days. How it is done: (§2) The Cignal Lenti reporter assay (luc) was used to monitor the activity of several signalling pathways in MCF7-GFP cells as explained previously. Luciferase Assay System (E1501, Promega) was performed according to manufacturer’s instructions. 1 × 10^4 MCF7 were seeded in black-walled 96 well plates. When cells were attached, drug treatments were added for 18, 48 hours and 5 days. After treatment, Luciferase Assay was performed according to manufacturer’s instructions and light signal was acquired in the Xenogen VivoVision IVIS Lumina. Results were normalized by SRB staining of cells grown in 96-well plates in parallel.
(§3) SRB (S9012, Sigma) measures total biomass by staining cellular proteins. After treatment, cells were fixed in 10% tricloroacetic acid (T9159, Sigma) for 1 hour at 4° C, stained with SRB (S9012, Sigma) for 15 minutes, and washed 3 times with 1% acetic acid (27225, Sigma). The incorporated die was solubilized with 10 mM Tris Base, pH 8.8 (T1503, Sigma). Absorbance was spectrophotometrically measured at 562 nm in a FluoStar Omega plate reader (BMG Labtech). Background measurements were subtracted from all values.
On the technique in general: A reporter such as luciferase makes a cellular process visible.

A further assay concerns TGFβ signalling. Kind of assay: Luciferase reporter assay MCF7-GFP-SMAD(luc). The assay is classed as cell-based, Human. The note with it: 50 µM, 2 and 5 days. As to the method:
as §2, §3

The subject of assay [6] is MCF7 cells. Kind of assay: DAPI immunofluorescence staining (binucleated cells). In kind it is cell-based, Human. The note with it: 50 µM; data not shown.

For the compound `COc1cc(-n2c(=S)[nH]c3ccccc3c2=O)c(Cl)cc1Cl` [mDIVI1, 3-(2,4-Dichloro-5-methoxyphenyl) 2,3-dihydro 2-thioxo-4(1H) quinazolinone], in the assay with MCF7 cells [1], the “Mitotracker Deep Red mean fluorescence intensity (mitochondrial mass)” value was “significantly higher”. Besides, in the assay with MCF7 cells [2], the “mitochondrial superoxide production (MitoSOX)” value is “significantly increased”. In addition, the “general oxidative stress levels (total ROS)” value with MCF7 cells [3] is on record as “did not change”. Besides, in the assay with MCF7 cells [4], the “basal glycolysis (ECAR)” value was “did not have a significant effect”, the “oxygen consumption linked to ATP production” value is “significantly reduced” and the “oxygen consumption linked to basal respiration” value is recorded as “significantly reduced”. The spare respiratory capacity entry in the assay on MCF7 cells [4] (all mDIVI1 concentrations) is on record as “slightly increased”. In addition, in the assay with MCF7 cells [4] (vs vehicle), the OCR/ECAR ratio entry is “decreased dose-dependently”. Further, the “oxygen consumption linked to maximal respiration” value with MCF7 cells [4] (to a lesser extent, at higher concentrations) is “significantly reduced”. Further, in the assay with MCF7 cells [4] (≥10 µM), the “glycolytic capacity (ECAR)” value is reported as “reduced” and the “glycolytic reserve (ECAR)” value is given as “reduced”. Moreover, the “decrease of A375 tumorsphere forming capacity” value in the assay on A375 melanoma (10 µM) is listed as “over 35%”. Besides, in the assay on A375 melanoma (50 µM), the “decrease of A375 tumorsphere forming capacity” value is listed as “over 90%”. Further, in the assay with MCF7 cells [5] (10 µM), the “reduction of percentage of wound closure vs vehicle” value is on record as 14%. Besides, in the assay on MCF7 cells [5] (50 µM), the “reduction of percentage of wound closure vs vehicle” value was 44%. Further, the “Hedgehog/GLI pathway luciferase activity” value in the assay with Hedgehog signalling is “strikingly caused the inhibition”. Moreover, in the assay on TGFβ signalling, the “TGFβ/SMAD pathway luciferase activity” value is on record as “strikingly caused the inhibition”. The “binucleated cells (failure of cytokinesis)” value in the assay on MCF7 cells [6] is on record as “increase in binucleated cells”.
